Results: patent US8252909B2, “Synthetic C-glycolipid and its use for treating cancer, infectious diseases, and autoimmune diseases” (New York University, priority 2002, dated 2012)
Where “and” joins values, the source holds several entries; their conditions need not be identical. Equal values may be shown once.

What was measured:
P. yoelii sporozoites [1] = assay: malaria liver stage development in mice challenged with P. yoelii sporozoites, real-time RT-PCR of 18S rRNA in liver; format: in vivo; settings: for suppression of P. yoelii liver stages in deficient mice: mice deficient in CD1d, Jα18, IFN-γ or IFN-γ receptor; for suppression of P. yoelii liver stages in deficient mice / malaria liver stage development: 2 μg intraperitoneally two days before challenge; for malaria liver stage development: compared to untreated control; for dose of equal anti-malaria activity (dose response): intraperitoneally three days before challenge
Description: (§1) P. yoelii (17NXL strain) was maintained by alternate cyclic passages in Anopheles stephensi mosquitoes and Swiss Webster mice. Sporozoites obtained from dissected salivary glands of infected mosquitoes 2 weeks after their infective blood were used for challenge of the mice. Challenge of mice to determine the development of liver-stage malaria infection was performed by an intravenous injection of 10,000 viable sporozoites into the tail vein. The outcome of the challenge was determined 40-42 hours later by measuring the parasite burden in the livers of the mice using a quantitative real-time RT-PCR method, as taught in Bruna-Romero et al., Int. J. Parasitol. 31, 1449-1502, 2001. Challenge of mice toe determine the development of blood stage malaria infection was performed by an intravenous injection of 75 viable sporozoites into the tail vein. Starting four days after challenge, daily peripheral blood smears were obtained from each mouse and examined microscopically for the presence of blood stage parasites until day 17 post-challenge. Mice were considered positive for parasitemia if at least one blood stage parasite was observed during the time of examination.
The degree of liver stage development in challenged mice was determined by quantifying the amount of P. yoelii-specific 18S rRNA molecules in the livers of the mice by way of the real-time RT-PCR technique of Bruna-Romero et al. A 2 μg sample of total RNA prepared from the livers of challenged mice was reverse-transcribed, and an aliquot of the resulting cDNA (133 ng) was used for real-time PCR amplification of P. yoelii 18S rRNA sequences. This amplification was performed in a GeneAmp® 5700 Sequence Detection System (PE Applied Biosystems, Foster City, Calif.). For this purpose, primers 5′-[…]-3′ (SEQ. ID NO: 1) (54 nM) and 5′-[…]-3′ (SEQ. ID NO: 2) (60 nm) were used, together with the dsDNA-specific dye SYBR Green I incorporated into the PCR reaction buffer (PE Biosystems, Foster City, Calif.) in order to detect the PCR product generated. The temperature profile of the reaction was 95° C. for 10 minutes followed by 35 cycles of denaturation of 95° C. for 15 seconds and annealing/extension at 60° C. for 1 minute.

P. yoelii sporozoites [2] = assay: sporozoite-induced blood stage malaria infection, daily blood smears; format: in vivo; settings: wild type BALB/c mice, 100 ng intraperitoneally three days before challenge
Description: as §1

B16 melanoma cells = assay: melanoma lung metastases, count of metastatic nodules; format: in vivo, C57/BL6 mice; settings: for dose of equal anti-cancer response (lung metastatic nodules): C57BL/6 mice, intravenously two days before challenge with 5×10^4 B16 cells, lungs checked two weeks later
Description: The development of melanoma lung metastases in C57/BL6 mice was determined by first challenging mice intravenously with 5×10^4 syngeneic B16 melanoma cells suspended in DMEM supplemented with 10% FCS. Two weeks after challenge the mice were sacrificed, the lungs removed, and the number of metastatic nodules counted, as described in Fujii et al., Natl. Immunol. 3, 867-874 (2002).

IL-4 = assay: serum IL-4 after treatment, sandwich ELISA; format: in vivo; settings: wild type BALB/c mice, 1 μg intravenously
Description: (§2) The serum concentrations of IFN-γ and IL-4 were measured 2, 6, 12, 24, 48, and 72 hours after treatment with α-GalCer, α-C-GalCer, or nothing by way of a sandwich ELISA (e-bioscience, San Diego). The serum concentrations of IL-12p70 were also measured at 2, 6, 12, 24, 48 and 72 hours after treatment by way of a sandwich ELISA (Pharmingen, San Diego).

IFN-γ = assay: serum IFN-γ after treatment, sandwich ELISA; format: in vivo; settings: wild type BALB/c mice, 1 μg intravenously
Description: as §2

IL-12p70 = assay: serum IL-12 after treatment, sandwich ELISA; format: in vivo; settings: wild type BALB/c mice, 1 μg intravenously
Description: as §2

P. yoelii sporozoites [3] = settings: mice, administered two days before challenge with Plasmodium sporozoites (Gonzalez-Aseguinolaza 2000); cited from earlier work
[4] = recent human trials (Shimosaka et al.); cited from earlier work
[5] = independently of dosage (Nakagawa et al., 1998); cited from earlier work
liver enzyme activities = settings: mice, immediately after treatment (Osman et al., 2000); cited from earlier work
[6] = 100 ng intraperitoneally four days before challenge

Row | Structure (SMILES) | anti-malaria activity in IL-12 deficient mice (P. yoelii sporozoites [1]; [6]) | suppression of P. yoelii liver stages in deficient mice (P. yoelii sporozoites [1]) | malaria liver stage development (P. yoelii sporozoites [1]; wild type BALB/c mice) | dose of equal anti-malaria activity (dose response) (P. yoelii sporozoites [1]; wild type BALB/c mice) | mice completely protected from blood stage malaria (P. yoelii sporozoites [2]) | dose of equal anti-cancer response (lung metastatic nodules) (B16 melanoma cells) | time of peak serum IL-4 concentration after treatment (IL-4) | time at which detectable serum IFN-γ levels start (IFN-γ) | time of peak serum IL-12 concentration after treatment (IL-12p70) | serum IL-12 levels 12 hours after treatment (IL-12p70) | also measured
1 | CCCCCCCCCCCCCCCCCCCCCCCCCC(=O)N[C@@H](CO[C@H]1O[C@H](CO)[C@H](O)[C@H](O)[C@H]1O)[C@H](O)[C@H](O)CCCCCCCCCCCCCC [α-GalCer, (2S,3S,4R)-1-O-(α-D-galactopyranosyl)-2-(N-hexacosanoylamino)-1,3,4-octadecanetriol] | no difference in anti-malaria activity | unable to suppress | virtually no liver stage development | 1 µg | 0 of 10 | 100 ng | 2 h | 6 h | 6 h | undetectable | peak serum IL-4 concentration relative to α-C-GalCer (IL-4; 2 hours): roughly 3 times; time of peak serum IFN-γ post-treatment (IFN-γ): 12 h and 24 h; development of malaria liver stages (P. yoelii sporozoites [3]): suppressed development of malaria liver stages; cytotoxicity in humans [4]: not cytotoxic; toxicity in rodents and monkeys [5]: does not induce toxicity; liver enzyme activities after treatment (liver enzyme activities): transient elevation of liver enzyme activities
2 | CCCCCCCCCCCCCCCCCCCCCCCCCC(=O)N[C@@H](CC[C@H]1O[C@H](CO)[C@H](O)[C@H](O)[C@H]1O)[C@H](O)[C@H](O)CCCCCCCCCCCCCC [α-C-GalCer, 3′S,4′S,5′R-3′-N-hexacosanoyl-4′,5′-dihydroxynonadecyl-α-C-D-galactopyranoside] | no difference in anti-malaria activity | unable to suppress | virtually no liver stage development | 0.001 µg | 9 of 10 | 1 ng | 2 h | 6 h | 6 h | detectable | potency against malaria relative to α-GalCer (P. yoelii sporozoites [1]; malaria disease model, mice): 1000 fold; extension of anti-malaria effect (kinetic effect) (P. yoelii sporozoites [1]; wild type BALB/c mice, 100 ng intraperitoneally at various times before challenge): up to three days longer than α-GalCer; suppression of liver stage development, wild type mice (P. yoelii sporozoites [1]; wild type mice, 100 ng intraperitoneally four days before challenge): suppressed liver stage development to a much greater degree than α-GalCer; potency against melanoma metastases relative to α-GalCer (B16 melanoma cells; melanoma metastases model, mice): 100 fold; peak serum IL-12 concentration relative to α-GalCer (IL-12p70; 6 hours): 2 times
